Experimental data from patent US6552070B2, “Health food useful for preventing liver and biliary dysfunctions containing an alkanoyl L-carnitine and Silybum marianum extract” (Sigma-Tau HealthScience S.p.A., priority 2000, dated 2003).

How the values were obtained:
[1] = tested on: galactosamine-induced liver intoxication; experiment: Protection against hepatotoxic effects induced by galactosamine in the rat; type: in vivo
Procedure: In these tests the method adopted was that described by Reuter (Reuter W., Trends in the Therapy of Liver Diseases Proceeding, Ed. A. Bertelli, pp. 121, 1974, Karger Basel 1975).
Rats weighing approximately 250 g received daily oral administrations for two days consecutively of 200 mg/kg of isovaleryl L-carnitine or 200 mg/kg of propionyl L-carnitine or 100 mg/kg of silymarin or a combination of these compounds at the same doses. After 24 hours, the same rats were administered 400 mg/kg i.p. of galactosamine. After a further 24 hours, blood samples taken from the animals were used to determine both glutamic-oxalacetic […] (GOT) and the bilirubin present in plasma, according to the method described by Keppler (Keppler D., Exp. Mol. Pathol, 9, 279, 1968).

[2] = tested on: rat liver cells; experiment: Protection against CCl4 toxicity on isolated liver cell cultures; conditions: CCl4 100 mg L^−1; for Concentration of AlaAT in supernatant of liver cells exposed to CCl4 / Concentration of AspAT in supernatant of liver cells exposed to CCl4: I 100 mg L^−1, P 100 mg L^−1, S 50 mg L^−1; for Inhibition of toxic and lipoperoxidative effects caused by CCl4 on liver cell cultures (in words): summary of Tables 1 and 2
[3] = rat plasma 24 hours after galactosamine 400 mg/kg i.p., oral pretreatment two days, alkanoyl L-carnitine 200 mg/kg, silymarin 100 mg/kg

SMILES	Protective effect against galactosamine-induced liver intoxication (in words) ([1]; rat)	Bilirubin [1, 3]	GOT [1, 3]	GluDH ([1]; rat, 24 hours after galactosamine 400 mg/kg i.p., oral pretreatment two days, alkanoyl L-carnitine 200 mg/kg, silymarin 100 mg/kg)	Concentration of AlaAT in supernatant of liver cells exposed to CCl4 ([2]; 4 hours)	Concentration of AspAT in supernatant of liver cells exposed to CCl4 ([2]; 4 hours)	Concentration of AlaAT in supernatant of liver cells exposed to CCl4 ([2]; 8 hours)	Concentration of AspAT in supernatant of liver cells exposed to CCl4 ([2]; 8 hours)	Concentration of AlaAT in supernatant of liver cells exposed to CCl4 ([2]; 16 hours)	Concentration of AspAT in supernatant of liver cells exposed to CCl4 ([2]; 16 hours)	Inhibition of toxic and lipoperoxidative effects caused by CCl4 on liver cell cultures (in words) [2]	Enzyme activity (GOT) and bilirubin after galactosamine (in words) ([1]; rat, oral pretreatment, galactosamine 400 mg/kg i.p.)
CC(C)CC(=O)O[C@H](CC(=O)[O-])C[N+](C)(C)C [Isovaleryl L-carnitine, isovaleryl L-carnitine]	protective activity	0.15 ± 0.04	215 ± 30.5	64 ± 6.8	19.4 ± 2.4 nmol/min/L	6.9 ± 1.1 nmol/min/L	16.7 ± 3.1 nmol/min/L	6.2 ± 0.9 nmol/min/L	15.6 ± 2.7 nmol/min/L	5.5 ± 1.2 nmol/min/L	partly inhibiting	–
CCC(=O)O[C@H](CC(=O)[O-])C[N+](C)(C)C [Propionyl L-carnitine, propionyl L-carnitine]	–	–	–	–	22.3 ± 4.1 nmol/min/L	7.5 ± 0.9 nmol/min/L	18.4 ± 2.3 nmol/min/L	5.5 ± 1.2 nmol/min/L	16.6 ± 1.9 nmol/min/L	5.2 ± 1.4 nmol/min/L	partly inhibiting	reduced
